Experiment: Amounts of β-lactam antibiotic, β-lactamase inhibitor and aminoglycoside antibiotic in solution over time (reverse-phase LC/HPLC)
Format: physicochemical
Outline: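 β-Lactam antibiotic and β-lactamase inhibitor quantified by C18 reverse-phase LC with UV-VIS detection; aminoglycoside by reverse-phase HPLC with evaporative light-scattering detection. Peak areas taken relative to an external standard, with each component at each time point given as a percentage of its initial amount.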

## CC1(C)[C@H](C(=O)O)N2C(=O)C[C@H]2S1(=O)=O [Sulbactam sodium]
In Example 4 solution (no EDTA), pH 6.75, room temperature, 0 h
  amount (percentage of initial amount): 101.4%
In Example 4 solution (no EDTA), pH 6.75, room temperature, 1 h
  amount (percentage of initial amount): 101.4%
In Example 4 solution (no EDTA), pH 6.75, room temperature, 2 h
  amount (percentage of initial amount): 101.5%
In Example 4 solution (no EDTA), pH 6.75, room temperature, 4 h
  amount (percentage of initial amount): 109.7%
In Example 4 solution (no EDTA), pH 6.75, room temperature, 6 h
  amount (percentage of initial amount): 103.2%
In Example 5 solution, pH 6.75, room temperature, 0 h
  amount (percentage of initial amount): 101.4%
In Example 5 solution, pH 6.75, room temperature, 1 h
  amount (percentage of initial amount): 101.4%
In Example 5 solution, pH 6.75, room temperature, 2 h
  amount (percentage of initial amount): 101.5%
In Example 5 solution, pH 6.75, room temperature, 4 h
  amount (percentage of initial amount): 109.7%
In Example 5 solution, pH 6.75, room temperature, 6 h
  amount (percentage of initial amount): 103.2%
In Example 6 solution, pH 6.5, room temperature, 0 h
  amount (percentage of initial amount): 99.62%
In Example 6 solution, pH 6.5, room temperature, 1 h
  amount (percentage of initial amount): 100.4%
In Example 6 solution, pH 6.5, room temperature, 2 h
  amount (percentage of initial amount): 100.2%
In Example 6 solution, pH 6.5, room temperature, 4 h
  amount (percentage of initial amount): 100.2%
In Example 7 solution, pH 6.75, room temperature, 0 h
  amount (percentage of initial amount): 96.84%
In Example 7 solution, pH 6.75, room temperature, 1 h
  amount (percentage of initial amount): 94.43%
In Example 7 solution, pH 6.75, room temperature, 2 h
  amount (percentage of initial amount): 93.35%
In Example 7 solution, pH 6.75, room temperature, 4 h
  amount (percentage of initial amount): 93.23%
In Example 7 solution, pH 6.75, room temperature, 6 h
  amount (percentage of initial amount): 92.13%
In Example 7 solution, pH 6.75, room temperature, 8 h
  amount (percentage of initial amount): 93.38%
In Example 12 solution (no aminoglycoside) from freeze-dried powder stored 7 days at 0° C., redissolved, 0 h
  amount (percentage of initial amount): 98.5%
In Example 12 solution (no aminoglycoside) from freeze-dried powder stored 7 days at 0° C., redissolved, 1 h
  amount (percentage of initial amount): 98.7%
In Example 12 solution (no aminoglycoside) from freeze-dried powder stored 7 days at 0° C., redissolved, 2 h
  amount (percentage of initial amount): 98.2%
In Example 12 solution (no aminoglycoside) from freeze-dried powder stored 7 days at 0° C., redissolved, 4 h
  amount (percentage of initial amount): 95.6%
In Example 12 solution (no aminoglycoside) from freeze-dried powder stored 7 days at 0° C., redissolved, 6 h
  amount (percentage of initial amount): 94.0%
In Example 12 solution (no aminoglycoside) from freeze-dried powder stored 7 days at 0° C., redissolved, 8 h
  amount (percentage of initial amount): 96.1%
In Example 14 solution, pH 6.5, room temperature, 0 h
  amount (percentage of initial amount): 92.44%
In Example 14 solution, pH 6.5, room temperature, 1 h
  amount (percentage of initial amount): 91.27%
In Example 14 solution, pH 6.5, room temperature, 2 h
  amount (percentage of initial amount): 90.78%
In Example 14 solution, pH 6.5, room temperature, 4 h
  amount (percentage of initial amount): 88.38%
In Example 14 solution, pH 6.5, room temperature, 6 h
  amount (percentage of initial amount): 86.86%
In Example 15 solution, pH 6.5, room temperature, 0 h
  amount (percentage of initial amount): 99.50%
In Example 15 solution, pH 6.5, room temperature, 1 h
  amount (percentage of initial amount): 96.28%
In Example 15 solution, pH 6.5, room temperature, 2 h
  amount (percentage of initial amount): 102.5%
In Example 15 solution, pH 6.5, room temperature, 4 h
  amount (percentage of initial amount): 95.78%
In Example 15 solution, pH 6.5, room temperature, 6 h
  amount (percentage of initial amount): 70.74%
In Example 17 solution, pH 6.5, room temperature, 0 h
  amount (percentage of initial amount): 114.3%
In Example 17 solution, pH 6.5, room temperature, 1 h
  amount (percentage of initial amount): 95.83%
In Example 17 solution, pH 6.5, room temperature, 2 h
  amount (percentage of initial amount): 93.75%
In Example 17 solution, pH 6.5, room temperature, 4 h
  amount (percentage of initial amount): 93.78%
In Example 17 solution, pH 6.5, room temperature, 6 h
  amount (percentage of initial amount): 95.65%
In Example 17 solution, pH 6.5, room temperature, 8 h
  amount (percentage of initial amount): 101.0%
In Example 18 solution (2.5% fructose), pH 6.5, room temperature, 0 h
  amount (percentage of initial amount): 98.07%
In Example 18 solution (2.5% fructose), pH 6.5, room temperature, 1 h
  amount (percentage of initial amount): 98.13%
In Example 18 solution (2.5% fructose), pH 6.5, room temperature, 2 h
  amount (percentage of initial amount): 72.96%
In Example 18 solution (2.5% fructose), pH 6.5, room temperature, 4 h
  amount (percentage of initial amount): 95.16%
In Example 18 solution (2.5% fructose), pH 6.5, room temperature, 6 h
  amount (percentage of initial amount): 99.65%
In Example 18 solution (2.5% fructose), pH 6.5, room temperature, 8 h
  amount (percentage of initial amount): 104.9%
In Example 19 solution, pH 6.75, room temperature, 0 h
  amount (percentage of initial amount): 108.8%
In Example 19 solution, pH 6.75, room temperature, 1 h
  amount (percentage of initial amount): 109.6%
In Example 19 solution, pH 6.75, room temperature, 2 h
  amount (percentage of initial amount): 111.7%
In Example 19 solution, pH 6.75, room temperature, 4 h
  amount (percentage of initial amount): 115.9%
In Example 19 solution, pH 6.75, room temperature, 6 h
  amount (percentage of initial amount): 120.7%
In Example 19 solution, pH 6.75, room temperature, 8 h
  amount (percentage of initial amount): 125.6%
In Example 20 solution (no EDTA), pH 6.75, room temperature, 0 h
  amount (percentage of initial amount): 105.6%
In Example 20 solution (no EDTA), pH 6.75, room temperature, 1 h
  amount (percentage of initial amount): 112.2%
In Example 20 solution (no EDTA), pH 6.75, room temperature, 2 h
  amount (percentage of initial amount): 112.6%
In Example 20 solution (no EDTA), pH 6.75, room temperature, 4 h
  amount (percentage of initial amount): 118.5%
In Example 20 solution (no EDTA), pH 6.75, room temperature, 6 h
  amount (percentage of initial amount): 123.3%
In Example 20 solution (no EDTA), pH 6.75, room temperature, 8 h
  amount (percentage of initial amount): 127.1%
In Example 22 solution (2.5% fructose), pH 6.0, room temperature, 0 h
  amount (percentage of initial amount): 101.4%
In Example 22 solution (2.5% fructose), pH 6.0, room temperature, 1 h
  amount (percentage of initial amount): 107.6%
In Example 22 solution (2.5% fructose), pH 6.0, room temperature, 2 h
  amount (percentage of initial amount): 101.3%
In Example 22 solution (2.5% fructose), pH 6.0, room temperature, 4 h
  amount (percentage of initial amount): 104.4%
In Example 22 solution (2.5% fructose), pH 6.0, room temperature, 6 h
  amount (percentage of initial amount): 104.4%
In Example 22 solution (2.5% fructose), pH 6.0, room temperature, 8 h
  amount (percentage of initial amount): 91.39%
In Example 24 solution, pH 6.75, room temperature, 0 h
  amount (percentage of initial amount): 90.06%
In Example 24 solution, pH 6.75, room temperature, 1 h
  amount (percentage of initial amount): 94.26%
In Example 24 solution, pH 6.75, room temperature, 2 h
  amount (percentage of initial amount): 100.5%
In Example 24 solution, pH 6.75, room temperature, 4 h
  amount (percentage of initial amount): 89.94%
In Example 24 solution, pH 6.75, room temperature, 6 h
  amount (percentage of initial amount): 94.26%
In Example 24 solution, pH 6.75, room temperature, 8 h
  amount (percentage of initial amount): 105.0%
In Example 25 solution, pH 6.75, room temperature, 0 h
  amount (percentage of initial amount): 99.32%
In Example 25 solution, pH 6.75, room temperature, 1 h
  amount (percentage of initial amount): 107.5%
In Example 25 solution, pH 6.75, room temperature, 2 h
  amount (percentage of initial amount): 97.91%
In Example 25 solution, pH 6.75, room temperature, 4 h
  amount (percentage of initial amount): 83.79%
In Example 25 solution, pH 6.75, room temperature, 6 h
  amount (percentage of initial amount): 94.52%
In Example 25 solution, pH 6.75, room temperature, 8 h
  amount (percentage of initial amount): 105.5%
